Patent publication US20060069132A1, “Azolecarboxamide herbicides” (priority 2004, published 2006)

Tests used:
[1] = system: barnyardgrass; experiment: Test B pre-/postemergence herbicide test; assay type: in vivo, Echinochloa crus-galli; settings: for Barnyardgrass plant response rating: Postemergence, scale 0 (no effect) to 100 (complete control)
Summary of the method: (§1)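 Seeds were planted and treated preemergence with compounds formulated in a non-phytotoxic solvent mixture containing surfactant, while plants at the 1- to 4-leaf stage (2 to 18 cm) received postemergence sprays. Flooded paddy plants were grown to the 2-leaf stage. After 13 to 15 days in a greenhouse, injury was visually rated 0–100 against untreated controls.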

[2] = system: Surinam grass; experiment: Test B pre-/postemergence herbicide test; assay type: in vivo, Urochloa decumbens
Summary of the method: (§2)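 Test chemicals in a non-phytotoxic solvent mixture with surfactant were applied preemergence to seeded species and postemergence to plants 2-18 cm tall (1- to 4-leaf stage); rice and barnyardgrass were also tested in a flooded paddy at the 2-leaf stage. Visual rating versus controls after 13-15 days in greenhouse, scale 0 (no effect) to 100 (complete control).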

[3] = system: cocklebur; experiment: Test B pre-/postemergence herbicide test; assay type: in vivo, Xanthium strumarium
Summary of the method: as §1

[4] = system: corn; experiment: Test B pre-/postemergence herbicide test; assay type: in vivo, Zea mays
Summary of the method: as §2

[5] = system: large crabgrass; experiment: Test B pre-/postemergence herbicide test; assay type: in vivo, Digitaria sanguinalis
Summary of the method: as §2

[6] = system: giant foxtail; experiment: Test B pre-/postemergence herbicide test; assay type: in vivo, Setaria faberi
Summary of the method: as §2

[7] = system: lambsquarters; experiment: Test B pre-/postemergence herbicide test; assay type: in vivo, Chenopodium album
Summary of the method: as §2

[8] = system: morningglory; experiment: Test B pre-/postemergence herbicide test; assay type: in vivo, Ipomoea coccinea
Summary of the method: as §1

[9] = system: pigweed; experiment: Test B pre-/postemergence herbicide test; assay type: in vivo, Amaranthus retroflexus
Summary of the method: as §2

[10] = system: velvetleaf; experiment: Test B pre-/postemergence herbicide test; assay type: in vivo, Abutilon theophrasti
Summary of the method: as §2

[11] = system: blackgrass; experiment: Test B postemergence herbicide test; assay type: in vivo, Alopecurus myosuroides
Summary of the method: (§3)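 Postemergence plants were sprayed with formulated test chemicals at 2 to 18 cm height (1- to 4-leaf stage); paddy species were grown to the 2-leaf stage. After 13 to 15 days in a greenhouse, injury was rated visually against untreated controls on a 0–100 scale (0 = no effect, 100 = complete control).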

[12] = system: wheat; experiment: Test B postemergence herbicide test; assay type: in vivo, Triticum aestivum; set-up: key to Wheat plant response rating: 0 = no effect, 100 = complete control
Summary of the method: (§4)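 Scale 0–100: zero equals no visible effect, 100 complete control, judged by eye relative to controls. Timing: 13 to 15 days in greenhouse post-treatment. Growth stage at spraying: two leaves (paddy) or one to four leaves, 2–18 cm (postemergence).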

[13] = system: wild oat; experiment: Test B postemergence herbicide test; assay type: in vivo, Avena fatua
Summary of the method: as §4

[14] = system: rice; experiment: Test B flooded paddy test; assay type: in vivo, Oryza sativa; settings: 1000 g ai/ha, scale 0 to 100 (0 no effect, 100 complete control)
Summary of the method: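 Paddy species grown to the 2-leaf stage under flooding; blackgrass sprayed postemergence at 2–18 cm (1- to 4-leaf stage). Plants kept in a greenhouse for 13 to 15 days, then visually rated against controls on 0 (no effect) to 100 (complete control).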

[15] = system: small flower umbrella sedge; experiment: Test B flooded paddy test; assay type: in vivo, Cyperus difformis; settings: 1000 g ai/ha, scale 0 to 100 (0 no effect, 100 complete control)
Summary of the method: as §3

[16] = system: ducksalad; experiment: Test B flooded paddy test; assay type: in vivo, Heteranthera limosa; settings: 1000 g ai/ha, scale 0 to 100 (0 no effect, 100 complete control)
Summary of the method: as §3

[17] = system: barnyardgrass; experiment: Test B flooded paddy test; assay type: in vivo, Echinochloa crus-galli; settings: 1000 g ai/ha, scale 0 to 100 (0 no effect, 100 complete control)
Summary of the method: as §3

[18] = system: winter barley; experiment: Test C postemergence herbicide test; assay type: in vivo, Hordeum vulgare
Summary of the method: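 Greenhouse test with a 12–14 day hold after application and visual comparison with controls. Emerged plants were 1- to 4-leaf stage (2–18 cm) when sprayed postemergence, and the paddy barnyardgrass was at 2 leaves under flooded conditions. 100 = complete control.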

[19] = system: blackgrass; experiment: Test C postemergence herbicide test; assay type: in vivo, Alopecurus myosuroides
Summary of the method: (§5)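 Scoring by eye, 12–14 days post-treatment, greenhouse-held plants vs. controls; 0 no effect, 100 complete control. Sprayed at 1–4 leaves (2–18 cm); paddy barnyardgrass at 2 leaves, flooded.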

[20] = system: canarygrass; experiment: Test C postemergence herbicide test; assay type: in vivo, Phalaris minor
Summary of the method: as §5

[21] = system: downy bromegrass; experiment: Test C postemergence herbicide test; assay type: in vivo, Bromus tectorum
Summary of the method: as §5

[22] = system: green foxtail; experiment: Test C postemergence herbicide test; assay type: in vivo, Setaria viridis
Summary of the method: as §5

[23] = system: Italian ryegrass; experiment: Test C postemergence herbicide test; assay type: in vivo, Lolium multiflorum; settings: postemergence, scale 0 to 100
Summary of the method: as §5

[24] = system: wheat; experiment: Test C postemergence herbicide test; assay type: in vivo, Triticum aestivum; settings: postemergence, scale 0 to 100
Summary of the method: as §5

[25] = system: wild oat; experiment: Test C postemergence herbicide test; assay type: in vivo, Avenafatua; settings: postemergence, scale 0 to 100
Summary of the method: as §5

[26] = system: windgrass; experiment: Test C postemergence herbicide test; assay type: in vivo, Apera spica-venti; settings: postemergence, scale 0 to 100
Summary of the method: as §5

[27] = 125 g ai/ha, 0 is no effect, 100 is complete control, preemergence
[28] = Postemergence, 500 g ai/ha, scale 0 (no effect) to 100 (complete control)
[29] = postemergence, 125 g ai/ha, scale 0 to 100
[30] = Postemergence, 250 g ai/ha, scale 0 to 100, 0 no effect, 100 complete control
[31] = postemergence, 31 g ai/ha, scale 0 to 100
[32] = postemergence, 62 g ai/ha, scale 0 to 100

## C=CCNC(=O)c1ccc(F)c(NC(=O)c2cc(C(C)(C)C)nn2CC)c1 [Compound 430]
[1]; [27]
  Plant response rating (0 to 100 scale), Barnyardgrass: 90
[1]; 125 g ai/ha
  Barnyardgrass plant response rating: 30
[1]; 500 g ai/ha
  Barnyardgrass plant response rating: 50
[2]; [27]
  Plant response rating (0 to 100 scale), Surinam Grass: 80
[2]; [28]
  Surinam Grass plant response rating: 40
[2]; [29]
  Surinam Grass plant response rating: 30
[3]; [27]
  Plant response rating (0 to 100 scale), Cocklebur: 10
[3]; [28]
  Cocklebur plant response rating: 90
[3]; [29]
  Cocklebur plant response rating: 60
[4]; [27]
  Plant response rating (0 to 100 scale), Corn: 50
[4]; [28]
  Corn plant response rating: 40
[4]; [29]
  Corn plant response rating: 20
[5]; [27]
  Plant response rating (0 to 100 scale), Crabgrass, Large: 100
[5]; [28]
  Crabgrass, Large plant response rating: 50
[5]; [29]
  Crabgrass, Large plant response rating: 30
[6]; [27]
  Plant response rating (0 to 100 scale), Foxtail, Giant: 90
[6]; [28]
  Foxtail, Giant plant response rating: 40
[6]; [29]
  Foxtail, Giant plant response rating: 30
[7]; [27]
  Plant response rating (0 to 100 scale), Lambsquarters: 100
[7]; [28]
  Lambsquarters plant response rating: 80
[7]; [29]
  Lambsquarters plant response rating: 60
[8]; [27]
  Plant response rating (0 to 100 scale), Morningglory: 20
[8]; [28]
  Morningglory plant response rating: 70
[8]; [29]
  Morningglory plant response rating: 60
[9]; [27]
  Plant response rating (0 to 100 scale), Pigweed: 100
[9]; [28]
  Pigweed plant response rating: 80
[9]; [29]
  Pigweed plant response rating: 60
[10]; [27]
  Plant response rating (0 to 100 scale), Velvetleaf: 40
[10]; [28]
  Velvetleaf plant response rating: 80
[10]; [29]
  Velvetleaf plant response rating: 60
[11]; [28]
  Blackgrass plant response rating: 70
[11]; [29]
  Blackgrass plant response rating: 40
[12]; 500 g ai/ha, scale 0 to 100, 0 no effect, 100 complete control, preemergence
  Wheat plant response rating: 100
[12]; [28]
  Wheat plant response rating: 40
[12]; [29]
  Wheat plant response rating: 30
[13]; [28]
  Oat, Wild plant response rating: 50
[13]; [29]
  Oat, Wild plant response rating: 40
[14]
  Rice plant response rating: 60
[15]
  Sedge, Umbrella plant response rating: 80
[16]
  Ducksalad plant response rating: 80
[17]
  Barnyardgrass plant response rating: 80
[18]; Postemergence, 125 g ai/ha, scale 0 to 100, 0 no effect, 100 complete control
  Plant response rating, Barley, Winter: 35
[18]; [30]
  Plant response rating, Barley, Winter: 45
[18]; [31]
  Plant response rating, Barley, Winter: 25
[18]; postemergence, 62 g ai/ha, scale 0 to 100 (0 no effect, 100 complete control)
  Plant response rating, Barley, Winter: 30
[19]; [30]
  Plant response rating, Blackgrass: 65
[19]; [29]
  Plant response rating, Blackgrass: 55
[19]; [31]
  Plant response rating, Blackgrass: 45
[19]; [32]
  Plant response rating, Blackgrass: 50
[20]; [30]
  Plant response rating, Canarygrass: 60
[20]; [29]
  Plant response rating, Canarygrass: 50
[20]; [31]
  Plant response rating, Canarygrass: 30
[20]; [32]
  Plant response rating, Canarygrass: 40
[21]; [30]
  Plant response rating, Bromegrass, Downy: 55
[21]; [29]
  Plant response rating, Bromegrass, Downy: 50
[21]; [31]
  Plant response rating, Bromegrass, Downy: 45
[21]; [32]
  Plant response rating, Bromegrass, Downy: 45
[22]; [30]
  Plant response rating, Foxtail, Green: 60
[22]; [29]
  Plant response rating, Foxtail, Green: 50
[22]; [32]
  Plant response rating, Foxtail, Green: 45
[23]; 125 g ai/ha
  Plant response rating, Ryegrass, Italian: 60
[23]; 62 g ai/ha
  Plant response rating, Ryegrass, Italian: 55
[24]; 125 g ai/ha
  Plant response rating, Wheat: 50
[24]; 62 g ai/ha
  Plant response rating, Wheat: 45
[25]; 125 g ai/ha
  Plant response rating, Oat, Wild: 60
[25]; 62 g ai/ha
  Plant response rating, Oat, Wild: 55
[26]; 125 g ai/ha
  Plant response rating, Windgrass: 45
[26]; 62 g ai/ha
  Plant response rating, Windgrass: 35
